Laboratory results reported in ChEMBL document CHEMBL1201862, “PubChem BioAssay data set” (2004).
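Compound exposure: 48 hours, 5 concentrations, 96-well plates. GI50 marks 50% less growth.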 Active and inactive are the calls of the source. Cut-off read from the data, not from the text of the source: active = GI50 up to about 1.1 µM and inactive = higher.

What was measured:
Experiment in all cases: NCI anticancer screen, dose series, 48 h
EKVX = tested on: EKVX
SNB-75 = tested on: SNB-75
HCT-116 = tested on: HCT-116
HOP-92 = tested on: HOP-92
NCI-H226 = tested on: NCI-H226
SF-268 = tested on: SF-268
MCF7 = tested on: MCF7
SNB-19 = tested on: SNB-19
OVCAR-4 = tested on: OVCAR-4
Malme-3M = tested on: Malme-3M
TK-10 = tested on: TK-10
NCI-H460 = tested on: NCI-H460
OVCAR-8 = tested on: OVCAR-8
M14 = tested on: M14
BT-549 = tested on: BT-549
T47D = tested on: T47D
A549 = tested on: A549
MDA-N = tested on: MDA-N
SN12C = tested on: SN12C

SMILES | GI50 (EKVX) | GI50 (SNB-75) | GI50 (HCT-116) | GI50 (HOP-92) | GI50 (NCI-H226) | GI50 (SF-268) | GI50 (MCF7) | GI50 (SNB-19) | GI50 (OVCAR-4) | GI50 (Malme-3M) | GI50 (TK-10) | GI50 (NCI-H460) | GI50 (OVCAR-8) | GI50 (M14) | GI50 (BT-549) | GI50 (T47D) | GI50 (A549) | GI50 (MDA-N) | GI50 (SN12C)
O=C1N(CN2CCOCC2)CN(CN2CCOCC2)C(=O)N1Cc1ccc(-c2ccc(CN3C(=O)N(CN4CCOCC4)CN(CN4CCOCC4)C3=O)cc2)cc1 | 21.7 µM (inactive) | 9.55 µM (inactive) | 7.6 µM (inactive) | 9.46 µM (inactive) | > 46.2 µM (inactive) | 14.2 µM (inactive) | 4 µM (inactive) | 10.3 µM (inactive) | 14 µM (inactive) | 13.2 µM (inactive) | 16.5 µM (inactive) | 15.9 µM (inactive) | 20.5 µM (inactive) | 5.53 µM (inactive) | 5.87 µM (inactive) | 24 µM (inactive) | 20.8 µM (inactive) | – | –
C=CCN(CC=C)Cn1c(=S)sc2ccccc21 | > 100 µM (inactive) | > 100 µM (inactive) | > 100 µM (inactive) | 36.4 µM (inactive) | – | > 100 µM (inactive) | > 100 µM (inactive) | > 100 µM (inactive) | 86.3 µM (inactive) | – | > 100 µM (inactive) | 82.8 µM (inactive) | > 100 µM (inactive) | > 100 µM (inactive) | > 100 µM (inactive) | – | > 100 µM (inactive) | > 100 µM (inactive) | > 100 µM (inactive)
CCCN1CN(c2ccccc2)C2(CCN(CCCC(=O)c3ccc(F)cc3)CC2)C1=O | 14 µM (inactive) | 15 µM (inactive) | 2.18 µM (inactive) | 3.41 µM (inactive) | 6.47 µM (inactive) | 5.56 µM (inactive) | 0.6 µM (active) | 13.2 µM (inactive) | 2.48 µM (inactive) | 14.9 µM (inactive) | 6.62 µM (inactive) | 12.7 µM (inactive) | 16.7 µM (inactive) | 12.4 µM (inactive) | – | 4.61 µM (inactive) | 6.61 µM (inactive) | 9.38 µM (inactive) | 2.94 µM (inactive)
COc1ccc(N2C(=O)C(=O)N(c3ccc(/N=N\c4ccccc4)cc3)C2=S)cc1 | 17.9 µM (inactive) | 22.6 µM (inactive) | 19.3 µM (inactive) | 16.8 µM (inactive) | 21.7 µM (inactive) | 22.1 µM (inactive) | – | 21.9 µM (inactive) | 18.2 µM (inactive) | 18.5 µM (inactive) | 20.7 µM (inactive) | 18.3 µM (inactive) | 17.9 µM (inactive) | – | – | 18.8 µM (inactive) | 20.2 µM (inactive) | 19.3 µM (inactive) | 18 µM (inactive)
COc1cc2oc(=O)ccc2cc1C1OC(=O)C2OC21C (centres undefined) | > 100 µM (inactive) | > 100 µM (inactive) | > 100 µM (inactive) | > 100 µM (inactive) | > 100 µM (inactive) | > 100 µM (inactive) | > 100 µM (inactive) | > 100 µM (inactive) | > 100 µM (inactive) | > 100 µM (inactive) | > 100 µM (inactive) | > 100 µM (inactive) | > 100 µM (inactive) | > 100 µM (inactive) | – | > 100 µM (inactive) | > 100 µM (inactive) | > 100 µM (inactive) | > 100 µM (inactive)
OCC(CCc1ccccc1I)C1=CCC2(CC1)OCCO2 (centres undefined) | 21.4 µM (inactive) | 19.4 µM (inactive) | – | 12.4 µM (inactive) | 28.4 µM (inactive) | 17.8 µM (inactive) | 23.3 µM (inactive) | 18.5 µM (inactive) | 18.9 µM (inactive) | 17.8 µM (inactive) | 23.5 µM (inactive) | 26.5 µM (inactive) | 17 µM (inactive) | 20 µM (inactive) | – | 17.7 µM (inactive) | 19.8 µM (inactive) | 18.2 µM (inactive) | –
O=c1[nH]n(Cc2ccccc2Cl)c2ccc([N+](=O)[O-])cc12 | 58.7 µM (inactive) | 47.2 µM (inactive) | 41.1 µM (inactive) | 18.5 µM (inactive) | 86.9 µM (inactive) | 49.9 µM (inactive) | – | 80 µM (inactive) | 78.9 µM (inactive) | 47.3 µM (inactive) | 55.6 µM (inactive) | 35.6 µM (inactive) | 42.3 µM (inactive) | > 100 µM (inactive) | – | – | 37.8 µM (inactive) | 47 µM (inactive) | 54 µM (inactive)
COc1cc2c(/C=C3/C(=O)Nc4ccc(O)cc43)c(Cl)n(Cc3ccccc3)c2cc1C | 5.62 µM (inactive) | 0.979 µM (active) | 0.421 µM (active) | 12.8 µM (inactive) | 0.948 µM (active) | 0.678 µM (active) | 1.18 µM (inactive) | 0.596 µM (active) | 4.2 µM (inactive) | 0.24 µM (active) | 3.36 µM (inactive) | 0.553 µM (active) | 1.43 µM (inactive) | 0.6 µM (active) | – | 4.93 µM (inactive) | 0.975 µM (active) | – | 6.17 µM (inactive)
